According to patent US12144851B2, “Vaccinal strategy” (INSERM (INSTITUT NATIONAL DE LA SANTÉ ET DE LA RECHERCHE …, priority 2018, dated 2024):

System: SARC-A2-MELOE-1 cells
Assay: Anti-tumor vaccination with aSLP
Format: in vivo, A2/DR1 mice
Details: day 36, threshold 50 mm^2; prime 100 μg day 6 plus adjuvant, boost 14 days later; 0/7 in untreated, p=0.0513
Procedure: The SARC-L1 cell line which spontaneously occurred in A2/DR1 mice was genetically modified to over-express HLA-A*0201 as previously described (Rangan et al Oncotarget, 2017). SARC-A2 cells were then transduced with a gammaretroviral dicistronic vector encoding the whole MELOE-1 antigen and, downstream of an IRES element, a puromycin N-acetyltransferase allowing selection of the transduced cells with puromycin (5 μg/mL). HLA-A*0201 expression was checked by flow cytometry. The capacity of the MELOE-1-transduced SARC-A2 (SARC-A2-MELOE-1) cells to present the A2-restricted MELOE-1 epitope was confirmed by their recognition by an HLA-A*0201-restricted T cell clone (data not shown).
A2/DR1 mice were subcutaneously injected with 2×10^5 SARC-A2-MELOE-1 cells in 100 μl in the right flank. The first vaccination with aSLP (100 μg in IFA, as above) or adjuvant alone or PBS started when tumor became detectable (around 10 mm2). […] Tumor growth was evaluated twice a week using a caliper and mice were euthanized when their tumor exceeded 300 mm^2. The efficiency of anti-tumor vaccination was evaluated by Fisher's exact test (α=0.5%).
To evaluate the anti-tumor potential of vaccination with aSLP, we used the previously described SARC-A2 cell line transduced with a cDNA encoding the whole MELOE-1 antigen. […] Mice were monitored until the end point at day 36. […]

TSREQFLPSEGAACPPWLLSVGGTLNDECWPASL (Synthetic SLP) [SEQ ID NO: 87]
mice in which tumor growth was inhibited: 4/8
